According to patent US4337199A, “Antibiotic β-lactam compounds, production thereof, and their use as antimicrobial agent” (Sanraku-Ocean Co., Ltd., priority 1978, dated 1982):
Values after ≈ are worked out from the molar mass of the structure shown.

How the values were obtained:
Assay in all cases: minimum inhibitory concentration, agar dilution assay
Assay type in all cases: cell-based
Alcaligenes faecalis A 1 = settings: A1, agar dilution, 35° C., 20 hours, read-out: minimum inhibitory concentration
Procedure: (§1) The antibiotic activities shown in Tables I-1 to I-8 above were determined in the following manner.
(§2) The minimum inhibitory concentrations of the compounds of formula (I-a-1) or (I-b-1) in Tables I-1 to I-7 and the known compounds in Table I-8 on the various microorganisms shown in the above tables were measured by an agar dilution assay method using a brain heart infusion agar medium "Difco" (a product of Difco Laboratories Inc.)
(§3) A sample of the test compound was dissolved in sterile distilled water and diluted to prepare a two-fold dilution series of the compound solution. In a petri plate of 9 cm diameter, 1 ml of the compound solution was added to 9 ml of molten sterile heart infusion agar medium (Difco Laboratories Inc.) at about 60° C. to prepare the compound-containing agar plate. An overnight culture of each test organism indicated in the above table which was prepared by stationary cultivation in Trypto-Soy broth (Eiken Chemi. Co., Ltd.) at 35° C. for 18 to 20 hours, was diluted with the Trypto-Soy broth to give approximately 10^8 cells/ml and the diluted inoculum was inoculated onto the compound-containing agar plates. After cultivating the plates at 35° C. for 20 hours, the growth of the organism was observed. The minimum concentration of the compound at which no growth of the microorganism was noted was determined, and defined as the minimum inhibitory concentration of the test compound.

[1] = test system: Bacillus subtilis ATCC 6633; settings: ATCC6633, agar dilution, 35° C., 20 hours, read-out: minimum inhibitory concentration
Procedure: as §1, §2, §3

[2] = test system: Citrobacter freundii GN 346; settings: GN346, agar dilution, 35° C., 20 hours, read-out: minimum inhibitory concentration
Procedure: as §1, §2, §3

[3] = test system: Comamonas terrigena B-996; settings: B996, agar dilution, 35° C., 20 hours, read-out: minimum inhibitory concentration
Procedure: as §1, §2, §3

[4] = test system: Enterobacter aerogenes E19; settings: Klebsiella aerogenes, E19; agar dilution, 35° C., 20 hours; read-out: minimum inhibitory concentration
Procedure: as §1, §2, §3

Enterobacter cloacae 45 = settings: Enterobacter cloacae, 45; agar dilution, 35° C., 20 hours; read-out: minimum inhibitory concentration
Procedure: as §1, §2, §3

Enterobacter sp. E8 = settings: SP.E8, agar dilution, 35° C., 20 hours, read-out: minimum inhibitory concentration
Procedure: as §1, §2, §3

Escherichia coli K-12 = settings: K12, agar dilution, 35° C., 20 hours, read-out: minimum inhibitory concentration
Procedure: as §1, §2, §3

Escherichia coli RGN 823 = settings: RGN823, agar dilution, 35° C., 20 hours, read-out: minimum inhibitory concentration
Procedure: as §1, §2, §3

[5] = test system: Klebsiella pneumoniae K-13; settings: K13, agar dilution, 35° C., 20 hours, read-out: minimum inhibitory concentration
Procedure: as §1, §2, §3

Proteus mirabilis P6 = settings: P6, agar dilution, 35° C., 20 hours, read-out: minimum inhibitory concentration
Procedure: as §1, §2, §3

Proteus rettgeri P7 = settings: Providencia rettgeri, P7; agar dilution, 35° C., 20 hours; read-out: minimum inhibitory concentration
Procedure: as §1, §2, §3

Proteus sp. P22 = settings: agar dilution, 35° C., 20 hours; read-out: minimum inhibitory concentration
Procedure: as §1, §2, §3

Proteus vulgaris GN76 = settings: GN76, agar dilution, 35° C., 20 hours, read-out: minimum inhibitory concentration
Procedure: as §1, §2, §3

Providencia sp. P8 = settings: SP.P8, agar dilution, 35° C., 20 hours, read-out: minimum inhibitory concentration
Procedure: as §1, §2, §3

[6] = test system: Pseudomonas aeruginosa IFO3445; settings: IFO3445, agar dilution, 35° C., 20 hours, read-out: minimum inhibitory concentration
Procedure: as §1, §2, §3

[7] = test system: Pseudomonas aeruginosa NCTC10490; settings: NCTC10490, agar dilution, 35° C., 20 hours, read-out: minimum inhibitory concentration
Procedure: as §1, §2, §3

Sarcina lutea = settings: Micrococcus luteus; agar dilution, 35° C., 20 hours; read-out: minimum inhibitory concentration
Procedure: as §1, §2, §3

Serratia marcescens S18 = settings: S18, agar dilution, 35° C., 20 hours, read-out: minimum inhibitory concentration
Procedure: as §1, §2, §3

Serratia marcescens T55 = settings: T55, agar dilution, 35° C., 20 hours, read-out: minimum inhibitory concentration
Procedure: as §1, §2, §3

[8] = test system: Staphylococcus aureus FDA 209P; settings: FDA209P, agar dilution, 35° C., 20 hours, read-out: minimum inhibitory concentration
Procedure: as §1, §2, §3

[9] = test system: Staphylococcus aureus Russell; settings: agar dilution, 35° C., 20 hours, read-out: minimum inhibitory concentration
Procedure: as §1, §2, §3

[10] = test system: Staphylococcus aureus Smith; settings: agar dilution, 35° C., 20 hours, read-out: minimum inhibitory concentration
Procedure: as §1, §2, §3

[11] = test system: Staphylococcus epidermidis; settings: agar dilution, 35° C., 20 hours, read-out: minimum inhibitory concentration
Procedure: as §1, §2, §3

| SMILES | MIC (Alcaligenes faecalis A 1) [µg/mL] | MIC [1] [µg/mL] | MIC [2] [µg/mL] | MIC [3] [µg/mL] | MIC [4] [µg/mL] | MIC (Enterobacter cloacae 45) [µg/mL] | MIC (Enterobacter sp. E8) [µg/mL] | MIC (Escherichia coli K-12) [µg/mL] | MIC (Escherichia coli RGN 823) [µg/mL] | MIC [5] [µg/mL] | MIC (Proteus mirabilis P6) [µg/mL] | MIC (Proteus rettgeri P7) [µg/mL] | MIC (Proteus sp. P22) [µg/mL] | MIC (Proteus vulgaris GN76) [µg/mL] | MIC (Providencia sp. P8) [µg/mL] | MIC [6] [µg/mL] | MIC [7] [µg/mL] | MIC (Sarcina lutea) [µg/mL] | MIC (Serratia marcescens S18) [µg/mL] | MIC (Serratia marcescens T55) [µg/mL] | also measured |
| --- | --- | --- | --- | --- | --- | --- | --- | --- | --- | --- | --- | --- | --- | --- | --- | --- | --- | --- | --- | --- | --- |
| CC(C)C1C(=O)N2C(C(=O)O)=C(Sc3ncccn3)CC12 (stereo not drawn) [Example 62, 3-(2-Pyrimidinylthio)-6-isopropyl-7-oxo-1-azabicyclo[3.2.0]hept-2-ene-2-carboxylic acid] | 0.39 (≈ 1.28 µM) | 0.013 (≈ 0.0426 µM) | 50 (≈ 164 µM) | 0.013 (≈ 0.0426 µM) | > 100 | > 100 | 12.5 (≈ 40.9 µM) | 6.25 (≈ 20.5 µM) | 3.13 (≈ 10.3 µM) | 25 (≈ 81.9 µM) | 3.13 (≈ 10.3 µM) | 3.13 (≈ 10.3 µM) | 12.5 (≈ 40.9 µM) | 12.5 (≈ 40.9 µM) | 1.56 (≈ 5.11 µM) | 25 (≈ 81.9 µM) | 25 (≈ 81.9 µM) | 0.013 (≈ 0.0426 µM) | 25 (≈ 81.9 µM) | > 100 | MIC [8]: 0.007 µg/mL (≈ 0.0229 µM); MIC [9]: 0.013 µg/mL (≈ 0.0426 µM); MIC [10]: 0.025 µg/mL (≈ 0.0819 µM); MIC [11]: 0.05 µg/mL (≈ 0.164 µM) |
| CC(O)[C@H]1C(=O)N2C(C(=O)O)=C(Sc3ncccn3)C[C@H]12 (stereo partly drawn) [Example 63, 5,6-trans-3-(2-Pyrimidinylthio)-6-(1-hydroxyethyl)-7-oxo-1-azabicyclo[3.2.0]hept-2-ene-2-carboxylic acid] | 1.56 (≈ 5.08 µM) | 0.39 (≈ 1.27 µM) | 100 (≈ 325 µM) | 0.05 (≈ 0.163 µM) | 100 (≈ 325 µM) | 50 (≈ 163 µM) | 6.25 (≈ 20.3 µM) | 1.56 (≈ 5.08 µM) | 3.13 (≈ 10.2 µM) | 25 (≈ 81.3 µM) | 12.5 (≈ 40.7 µM) | 12.5 (≈ 40.7 µM) | 12.5 (≈ 40.7 µM) | 12.5 (≈ 40.7 µM) | 0.78 (≈ 2.54 µM) | 12.5 (≈ 40.7 µM) | 12.5 (≈ 40.7 µM) | 0.2 (≈ 0.651 µM) | 50 (≈ 163 µM) | 100 (≈ 325 µM) | MIC [8]: 0.2 µg/mL (≈ 0.651 µM); MIC [9]: 0.39 µg/mL (≈ 1.27 µM); MIC [10]: 0.39 µg/mL (≈ 1.27 µM); MIC [11]: 0.39 µg/mL (≈ 1.27 µM) |
| CCC1C(=O)N2C(C(=O)O)=C(SC3CCCCC3)CC12 (stereo not drawn) [Example 67, Sodium 3-cyclohexylthio-6-ethyl-7-oxo-1-azabicyclo[3.2.0.]hept-2-ene-2-carboxylate] | 5.6 | 0.09 | > 180 | < 0.01 | > 180 | > 180 | > 180 | 180 | 180 | > 180 | 45 | 180 | 90 | 180 | 180 | 180 | 22.5 | < 0.01 | > 180 | > 180 | MIC [8]: < 0.01 µg/mL; MIC [9]: < 0.01 µg/mL; MIC [10]: 0.04 µg/mL; MIC [11]: 0.04 µg/mL |
